Assay results: ChEMBL document CHEMBL6114950, “Diamino variants of piperazine-based tissue transglutaminase inhibitors” (Bioorg Med Chem Lett, 2025)
The source made the active and inactive calls. The rule behind the calls is not given here.

Tests used:
[1] = biological target: T1, Protein-glutamine gamma-glutamyltransferase (Homo sapiens) (UniProt P21980); test: Irreversible inhibition of recombinant human TG2 assessed as inhibition constant using Cbz-Glu(gamma-p-nitrophenyl ester)Gly as a substrate at upto 100 uM by continuous colorimetric assay
T1 sequence (whole entry): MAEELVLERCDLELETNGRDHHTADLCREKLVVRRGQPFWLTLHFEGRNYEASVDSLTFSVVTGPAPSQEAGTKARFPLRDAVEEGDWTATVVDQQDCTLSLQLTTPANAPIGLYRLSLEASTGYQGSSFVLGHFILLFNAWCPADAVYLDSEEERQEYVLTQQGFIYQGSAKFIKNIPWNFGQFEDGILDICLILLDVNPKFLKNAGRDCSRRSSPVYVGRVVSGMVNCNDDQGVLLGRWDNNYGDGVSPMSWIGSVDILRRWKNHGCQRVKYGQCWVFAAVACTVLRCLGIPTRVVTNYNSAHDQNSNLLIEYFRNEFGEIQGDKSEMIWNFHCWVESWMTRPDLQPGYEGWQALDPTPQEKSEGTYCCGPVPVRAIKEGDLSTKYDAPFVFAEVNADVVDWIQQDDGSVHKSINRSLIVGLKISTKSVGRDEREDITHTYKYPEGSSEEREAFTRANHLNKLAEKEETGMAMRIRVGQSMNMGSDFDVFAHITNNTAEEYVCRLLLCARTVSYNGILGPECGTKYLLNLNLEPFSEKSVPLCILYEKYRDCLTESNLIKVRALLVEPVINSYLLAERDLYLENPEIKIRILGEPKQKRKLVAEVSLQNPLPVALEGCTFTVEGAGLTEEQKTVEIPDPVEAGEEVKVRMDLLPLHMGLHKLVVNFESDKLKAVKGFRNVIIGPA

[2] = biological target: T1, Protein-glutamine gamma-glutamyltransferase (Homo sapiens); test: Irreversible inhibition of recombinant human TG2 assessed as Kinact/Ki using Cbz-Glu(gamma-p-nitrophenyl ester)Gly as a substrate at upto 100 uM by continuous colorimetric assay
[3] = biological target: T1, Protein-glutamine gamma-glutamyltransferase (Homo sapiens); test: Irreversible inhibition of recombinant human TG2 assessed as inactivation constant using Cbz-Glu(gamma-p-nitrophenyl ester)Gly as a substrate at upto 100 uM by continuous colorimetric assay
[4] = Apparent permeability across basolateral to apical side in […] cells; format: ADME, cell-based, Canis lupus familiaris; conditions: dog, MDCK-MDR1
[5] = Apparent permeability across apical to basolateral side in […] cells; format: ADME, cell-based, Canis lupus familiaris; conditions: dog, MDCK-MDR1
[6] = Efflux ratio of apparent permeability in MDCK-MDR1 cells; format: ADME, cell-based, Canis lupus familiaris; conditions: dog
[7] = biological target: T2, Protein-glutamine gamma-glutamyltransferase (Homo sapiens, UniProt P21980); test: Irreversible inhibition of recombinant human TG2 assessed as inhibition constant using Cbz-Glu(gamma-p-nitrophenyl ester)Gly as a substrate by continuous colorimetric assay
T2 sequence (P21980 whole entry): T1 sequence (whole entry)

[8] = biological target: T1, Protein-glutamine gamma-glutamyltransferase (Homo sapiens)
Description: Irreversible inhibition of recombinant human TG2 assessed as inactivation constant using Cbz-Glu(gamma-p-nitrophenyl ester)Gly as a substrate by continuous colorimetric assay

Compound	inhibition constant (Ki) [1]	kinact/Ki [2]	inactivation constant (kinact) [3]	Papp B→A [4] [×10⁻⁶ cm/s]	Papp A→B [5] [×10⁻⁶ cm/s]	efflux ratio [6]	Ki [7] [µM]	Kinact [8] [min⁻¹]
C=CC(=O)NCC(=O)NCCCNC(=O)C12CC3CC(CC(C3)C1)C2	inactive	inactive	inactive					
C=CC(=O)N(C)CC(=O)N1CCN(C(=O)C23CC4CC(CC(C4)C2)C3)CC1				39	19.7			
C=CC(=O)NCC(=O)NC1CCC(NC(=O)C23CC4CC(CC(C4)C2)C3)CC1 (configuration not stated)	inactive	inactive	inactive					
C=CC(=O)NCC(=O)N1CCC2(CC1)CCN(C(=O)C13CC4CC(CC(C4)C1)C3)CC2	inactive	inactive	inactive					
C=CC(=O)NCC(=O)NCCCCCNC(=O)C12CC3CC(CC(C3)C1)C2	inactive	inactive	inactive					
C=CC(=O)NCC(=O)N1CC2(CCN(C(=O)C34CC5CC(CC(C5)C3)C4)CC2)C1	inactive	inactive	inactive					
C=CC(=O)NCC(=O)N1CCN(C(=O)C23CC4CC(CC(C4)C2)C3)CC1				34.3	27.2	1.27	2.82	1.5
C=CC(=O)NCC(=O)N1CCC[C@@H](NC(=O)C23CC4CC(CC(C4)C2)C3)C1							115	0.67
C=CC(=O)NCC(=O)NCCNC(=O)C12CC3CC(CC(C3)C1)C2	inactive	inactive	inactive					
C=CC(=O)NCC(=O)N1CCC2(CC1)CCN(C(=O)C13CC4CC(CC(C4)C1)C3)C2							112	0.72
C=CC(=O)NCC(=O)NC1CN(C(=O)C23CC4CC(CC(C4)C2)C3)C1	inactive	inactive	inactive					
